Tests used:
hFAAH = target: T1, hFAAH (Homo sapiens, UniProt O00519); assay: Human FAAH inhibition assay (Cayman's assay kit); details: IC50, mean ± SEM (n = 3)
T1 sequence (O00519 1-579): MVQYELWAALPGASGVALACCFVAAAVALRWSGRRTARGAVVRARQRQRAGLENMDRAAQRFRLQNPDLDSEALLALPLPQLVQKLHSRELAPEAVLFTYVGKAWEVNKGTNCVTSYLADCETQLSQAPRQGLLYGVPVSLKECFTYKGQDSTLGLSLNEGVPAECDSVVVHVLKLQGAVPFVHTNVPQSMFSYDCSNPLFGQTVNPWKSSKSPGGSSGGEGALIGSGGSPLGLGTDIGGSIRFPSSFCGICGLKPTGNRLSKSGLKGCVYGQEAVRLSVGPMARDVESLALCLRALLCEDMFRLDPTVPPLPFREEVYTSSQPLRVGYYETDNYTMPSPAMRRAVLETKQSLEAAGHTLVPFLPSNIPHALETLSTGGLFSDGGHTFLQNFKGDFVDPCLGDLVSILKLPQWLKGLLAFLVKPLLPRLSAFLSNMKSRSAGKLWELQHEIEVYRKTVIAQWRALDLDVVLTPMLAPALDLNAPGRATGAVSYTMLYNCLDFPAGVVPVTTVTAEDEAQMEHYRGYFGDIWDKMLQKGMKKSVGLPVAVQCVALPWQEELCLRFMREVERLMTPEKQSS

hMAGL = target: T2, hMAGL (Homo sapiens, UniProt Q99685); assay: Human MAGL inhibition assay (Cayman's assay kit)
T2 sequence (Q99685 1-303): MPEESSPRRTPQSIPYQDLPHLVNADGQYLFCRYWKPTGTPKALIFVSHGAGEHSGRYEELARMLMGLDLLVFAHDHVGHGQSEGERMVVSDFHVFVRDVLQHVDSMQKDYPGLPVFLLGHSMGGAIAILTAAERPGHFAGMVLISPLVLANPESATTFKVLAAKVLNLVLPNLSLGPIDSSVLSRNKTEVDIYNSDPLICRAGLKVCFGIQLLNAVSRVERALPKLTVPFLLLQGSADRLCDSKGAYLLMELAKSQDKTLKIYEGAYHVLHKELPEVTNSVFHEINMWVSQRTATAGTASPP

MALME-3M = assay: NCI60 single-dose SRB assay; format: cell-based, human; details: Melanoma, 10 μM
Protocol: (§1) Compounds 19 and 20 were supplied to National Cancer Institute (USA), for sulforhodamine B (SRB) assay and anticancer screening. Single-dose (10 µM) assay results for compounds 19 and 20 were provided as a mean of percent growth (% G) and growth inhibition (% GI) against 60 cell lines of nine types of cancers and are tabulated in Table 4. […] Both the compounds 19 and 20 were also found active on UO-31 renal cancer cell line with % GI of 21.18 and 29.95, respectively.
(§2) Compounds 19 and 20 were supplied to National Cancer Institute (Bethesda, Maryland, USA), for in vitro sulforhodamine B (SRB) assay, anticancer screening on 60 cell lines of cancers of leukemia, melanoma, and tumors of the kidney, brain, breast, lung, colon, ovary, and prostate, as per their standard protocol. One dose anticancer results (NCI, USA) of compounds 19 and 20 are provided in the Supplementary Materials.

UO-31 = assay: NCI60 single-dose SRB assay; format: cell-based, human; details: UO-31, Renal Cancer, 10 μM
Protocol: as §1, §2

SF-539 = assay: NCI60 single-dose SRB assay; format: cell-based, human; details: SF-539, CNS Cancer, 10 μM
Protocol: as §1, §2

SNB-19 = assay: NCI60 single-dose SRB assay; format: cell-based, human; details: SNB-19, CNS Cancer, 10 μM
Protocol: as §1, §2

TK-10 = assay: NCI60 single-dose SRB assay; format: cell-based, human; details: TK-10, Renal Cancer, 10 μM
Protocol: as §1, §2

MDA-MB-435 = assay: NCI60 single-dose SRB assay; format: cell-based, human; details: MDA-MB-435, Melanoma, 10 μM
Protocol: as §1, §2

OVCAR-5 = assay: NCI60 single-dose SRB assay; format: cell-based, human; details: OVCAR-5, Ovarian Cancer, 10 μM
Protocol: as §1, §2

OVCAR-4 = assay: NCI60 single-dose SRB assay; format: cell-based, human; details: OVCAR-4, Ovarian Cancer, 10 μM
Protocol: as §1, §2

NCI-H460 = assay: NCI60 single-dose SRB assay; format: cell-based, human; details: NCI-H460, Non-Small Cell Lung Cancer, 10 μM
Protocol: as §1, §2

SK-MEL-28 = assay: NCI60 single-dose SRB assay; format: cell-based, human; details: SK-MEL-28, Melanoma, 10 μM
Protocol: as §1, §2

MCF7 = assay: NCI60 single-dose SRB assay; format: cell-based, human; details: MCF7, Breast Cancer, 10 μM
Protocol: as §1, §2

HOP-62 = assay: NCI60 single-dose SRB assay; format: cell-based, human; details: HOP-62, Non-Small Cell Lung Cancer, 10 μM
Protocol: as §1, §2

HCT-15 = assay: NCI60 single-dose SRB assay; format: cell-based, human; details: HCT-15, Colon Cancer, 10 μM
Protocol: as §1, §2

HS 578T = assay: NCI60 single-dose SRB assay; format: cell-based, human; details: Breast Cancer, 10 μM
Protocol: as §1, §2

LOX IMVI = assay: NCI60 single-dose SRB assay; format: cell-based, human; details: Melanoma, 10 μM
Protocol: as §1, §2

MDA-MB-231/ATCC = assay: NCI60 single-dose SRB assay; format: cell-based, human; details: Breast Cancer, 10 μM
Protocol: as §1, §2

ACHN = assay: NCI60 single-dose SRB assay; format: cell-based, human; details: Renal Cancer, 10 μM
Protocol: as §1, §2

SF-268 = assay: NCI60 single-dose SRB assay; format: cell-based, human; details: SF-268, CNS Cancer, 10 μM
Protocol: as §1, §2

SK-MEL-5 = assay: NCI60 single-dose SRB assay; format: cell-based, human; details: SK-MEL-5, Melanoma, 10 μM
Protocol: as §1, §2

CCRF-CEM = assay: NCI60 single-dose SRB assay; format: cell-based, human; details: Leukemia, 10 μM
Protocol: as §1, §2

## NS(=O)(=O)c1ccc(N2CC(c3nc4ccccc4o3)CC2=O)cc1 (centres unmarked) [Compound 20, 4-(4-(Benzo[d]oxazol-2-yl)-2-oxopyrrolidin-1-yl)benzenesulfonamide]
hFAAH
  IC50: 68 ± 2.1 µM
hMAGL
  IC50: 0.0076 ± 0.0008 µM
MALME-3M
  % G: 93.29%
  % GI: 6.71%
UO-31
  % G: 70.05%
  % GI: 29.95%
SF-539
  % G: 87.58%
  % GI: 12.42%
SNB-19
  % G: 97.02%
  % GI: 2.98%
TK-10
  % G: 114.82%
  % GI: −14.82%
MDA-MB-435
  % G: 100.55%
  % GI: −0.55%
OVCAR-5
  % G: 92.08%
  % GI: 7.92%
OVCAR-4
  % G: 99.47%
  % GI: 0.53%
NCI-H460
  % G: 104.20%
  % GI: −4.20%
SK-MEL-28
  % G: 101.79%
  % GI: −1.79%
MCF7
  % G: 92.32%
  % GI: 7.68%
HOP-62
  % G: 81.97%
  % GI: 18.03%
HCT-15
  % G: 101.16%
  % GI: −1.16%
HS 578T
  % G: 104.19%
  % GI: −4.19%
LOX IMVI
  % G: 92.99%
  % GI: 7.01%
MDA-MB-231/ATCC
  % G: 80.11%
  % GI: 19.89%
ACHN
  % G: 89.48%
  % GI: 10.52%
SF-268
  % G: 87.43%
  % GI: 12.57%
SK-MEL-5
  % G: 98.82%
CCRF-CEM
  % G: 94.48%
  % GI: 5.52%

## O=C1CC(c2nc3ccccc3o2)CN1c1ccc([N+](=O)[O-])cc1 (centres unmarked) [Compound 19, 4-(Benzo[d]oxazol-2-yl)-1-(4-nitrophenyl)pyrrolidin-2-one]
hFAAH
  IC50: 55 ± 2.7 µM
hMAGL
  IC50: 0.0084 ± 0.0019 µM
MALME-3M
  % G: 88.53%
  % GI: 11.47%
UO-31
  % G: 78.82%
  % GI: 21.18%
SF-539
  % G: 95.59%
  % GI: 4.41%
SNB-19
  % G: 99.29%
  % GI: 0.71%
TK-10
  % G: 110.14%
  % GI: −10.14%
MDA-MB-435
  % G: 95.05%
  % GI: 4.95%
OVCAR-5
  % G: 98.30%
  % GI: 1.70%
OVCAR-4
  % G: 106.27%
  % GI: −6.27%
NCI-H460
  % G: 102.33%
  % GI: −2.33%
SK-MEL-28
  % G: 111.25%
  % GI: −11.25%
MCF7
  % G: 99.19%
  % GI: 0.81%
HOP-62
  % G: 85.04%
  % GI: 14.96%
HCT-15
  % G: 98.10%
  % GI: 1.9%
HS 578T
  % G: 101.81%
  % GI: −1.81%
LOX IMVI
  % G: 89.06%
  % GI: 10.94%
MDA-MB-231/ATCC
  % G: 88.41%
  % GI: 11.59%
ACHN
  % G: 91.70%
  % GI: 8.3%
SF-268
  % G: 91.85%
  % GI: 8.15%
SK-MEL-5
  % G: 98.72%
  % GI: 1.28%
CCRF-CEM
  % G: 93.58%
  % GI: 6.42%

Source: paper PMC8074287, “Analgesic and Anticancer Activity of Benzoxazole Clubbed 2-Pyrrolidinones as Novel Inhibitors of Monoacylglycerol Lipase” (Molecules, 2021)
